{
  "source": "PubChem BioAssay AID1259409",
  "about": "(Chemical Carcinogenesis Research Information System (CCRIS), 2018)",
  "origin": "cited, not measured here",
  "system": "rodent chemically induced tumor inhibition, incidence and multiplicity",
  "test": "CCRIS tumor inhibitor studies",
  "data": [
    {"smiles": "C[C@]12CC[C@]3(C1)[C@H](CC2=O)C[C@@H](OC(=O)c1ccccc1)[C@H]1[C@](C)(C(=O)O)CCC[C@@]13C", "values": [
      {"measurement": "tumour outcome (control, treated, inhibition, significance)", "setting": "Carcinogen: 7,12-DIMETHYLBENZ[A]ANTHRACENE, 57-97-6, Dose [Inhibitor]: 0, 162 NMOL 2/WK APPLIED SIMULTANEOUSLY WITH EACH PROMOTER DOSE FOR 18 WK (STUDY DURATION: 18 WK), Route [Inhibitor]: DERMAL, Species: MOUSE, Strain/Sex: ICR/FEMALE, Target Tissue: Type of Lesion: SKIN: TUMOR, Dose [Carcinogen]: 100 UG IN 100 µL ACETONE ONCE, Promoter: 12-O-TETRADECANOYLPHORBOL-13-ACETATE, 16561-29-8", "value": "90%, 50%, 44%, not significant"}
    ]},
    {"smiles": "O=C1O[C@@H]2[C@@H](O)CO[C@]2(O)[C@@]1(O)Cc1c[nH]c2ccccc12", "values": [
      {"measurement": "tumour outcome (control, treated, inhibition, significance)", "setting": "Carcinogen: 7,12-DIMETHYLBENZ[A]ANTHRACENE [57-97-6], Dose [Inhibitor]: 0, 16 MG IN 0.5 ML DMSO 1X/D FOR 3 D BEGINNING 2 D PRIOR TO CARCINOGEN DOSE (STUDY DURATION: 93 D), Route [Inhibitor]: GAVAGE, Species: RAT, Strain/Sex: SPRAGUE-DAWLEY/FEMALE, Target Tissue: Type of Lesion: MAMMARY GLAND: TUMOR, Dose [Carcinogen]: 15 MG IN 0.5 ML DMSO TOGETHER WITH THE LAST DOES OF INHIBITOR (STUDY DURATION: 93 D), Promoter: NONE", "value": "63%, 60%, 5%, not significant"},
      {"measurement": "tumour outcome (control, treated, inhibition, significance)", "setting": "Carcinogen: 7,12-DIMETHYLBENZ[A]ANTHRACENE [57-97-6], Dose [Inhibitor]: 0, 32.5 MG IN 0.5 ML DMSO 1X/D FOR 3 D BEGINNING 2 D PRIOR TO CARCINOGEN DOSE (STUDY DURATION: 93 D), Route [Inhibitor]: GAVAGE, Species: RAT, Strain/Sex: SPRAGUE-DAWLEY/FEMALE, Target Tissue: Type of Lesion: MAMMARY GLAND: TUMOR, Dose [Carcinogen]: 15 MG IN 0.5 ML DMSO TOGETHER WITH THE LAST DOES OF INHIBITOR (STUDY DURATION: 93 D), Promoter: NONE", "value": "63%, 33%, 48%, p<0.05"},
      {"measurement": "tumour outcome (control, treated, inhibition, significance)", "setting": "Carcinogen: 7,12-DIMETHYLBENZ[A]ANTHRACENE [57-97-6], Dose [Inhibitor]: 0, 65 MG IN 0.5 ML DMSO 1X/D FOR 3 D BEGINNING 2 D PRIOR TO CARCINOGEN DOSE (STUDY DURATION: 93 D), Route [Inhibitor]: GAVAGE, Species: RAT, Strain/Sex: SPRAGUE-DAWLEY/FEMALE, Target Tissue: Type of Lesion: MAMMARY GLAND: TUMOR, Dose [Carcinogen]: 15 MG IN 0.5 ML DMSO TOGETHER WITH THE LAST DOES OF INHIBITOR (STUDY DURATION: 93 D), Promoter: NONE", "value": "63%, 39%, 38%, p<0.05"}
    ]},
    {"smiles": "CCCCC1C(=O)N(c2ccccc2)N(c2ccccc2)C1=O", "values": [
      {"measurement": "tumour outcome (control, treated, inhibition, significance)", "setting": "Carcinogen: N-NITROSOBIS(2-OXOPROPYL)AMINE, 60599-38-4, Dose [Inhibitor]: 0, 0.25% IN DIET FOR 27 WK BEGINNING POST LAST CARCINOGEN DOSE (STUDY DURATION: 32 WK), Route [Inhibitor]: ORAL, Species: HAMSTER, Strain/Sex: SYRIAN/FEMALE, Target Tissue: Type of Lesion: PANCREAS: ADENOCARCINOMA, Dose [Carcinogen]: 10 MG/KG 1/WK FOR 5 WK, Promoter: NONE USED", "value": "20/28 (71%), 7/19 (37%), 48%, p<0.05"}
    ]},
    {"smiles": "COc1ccc2cc(CCC(C)=O)ccc2c1", "values": [
      {"measurement": "tumour outcome (control, treated, inhibition, significance)", "setting": "Carcinogen: N-METHYL-N-NITROSOUREA, 684-93-5, Dose [Inhibitor]: 0, 0.03% IN DIET FOR 24 WK BEGINNING 1 WK POST CARCINOGEN DOSE (STUDY DURATION: 25 WK), Route [Inhibitor]: ORAL, Species: RAT, Strain/Sex: SPRAGUE-DAWLEY/FEMALE, Target Tissue: Type of Lesion: MAMMARY GLAND: TUMOR, Dose [Carcinogen]: 50 MG/KG ONCE, Promoter: NONE USED", "value": "24/30 (80%), 13/31 (42%), 48%, p<0.005"}
    ]},
    {"smiles": "C=CCS(=O)(=O)CC=C", "values": [
      {"measurement": "outcome", "setting": "Carcinogen: Vinyl carbamate, 15805-73-9, Dose [Inhibitor]: 50 mg/kg once at beginning of experiment (Study duration: 25 wk), Route [Inhibitor]: Oral, Species: Mouse, Strain/Sex: F1 (Big Blue x A/J), Target Tissue: Type of Lesion: Lung: Papilliary tumors and solid tumors, Dose [Carcinogen]: 60 mg/kg once 2 hr after inhibitor (Study duration: 25 wk), Promoter: None", "value": "papilliary tumors: 84 (58%), 21 (13.5%), p<0.01 (significant decrease). solid tu"}
    ]}
  ]
}
